This assay deals with reserpine-induced hypothermia. Put plainly: inhibition of reserpine-induced hypothermia in mice (antidepressant action). The format is in vivo, mice (Swiss strain). The following applies: for ED50: Mus musculus; for ED50 / ED50 (antidepressant action, dose which inhibits the reserpine-induced hypothermia by 50%): body temperature two hours after reserpine. The procedure:
The antidepressant action of the substances according to the invention was investigated using the following model:
2.15 mg/kg of reserpine administered subcutaneously to male mice (Swiss strain) weighing 20-26 g lowers the body temperature by an average of 3° C., measured two hours after administration of the reserpine and at an ambient temperature of 20°-22° C. Antidepressants inhibit this hypothermia, the inhibition being dose-dependent. The test substances are administered orally, 60 minutes before the administration of reserpine.
The dose which inhibits the reserpine-induced hypothermia by 50%, ie. the ED50, is determined from the linear regression between log dose (mg/kg) and relative decrease in hypothermia.
In some cases, the activity is substantially greater than that of imipramine (for Example 18c, by a factor of 72).

[1] abbreviates: male mice (Swiss strain), oral, 60 minutes before 2.15 mg/kg reserpine s.c., read-out: ED50 (antidepressant action, dose which inhibits the reserpine-induced hypothermia by 50%).
[2] abbreviates: male mice (Swiss strain), oral, 60 minutes before 2.15 mg/kg reserpine s.c.
The mark [3] stands for this setting: po, read-out: ED50 (antidepressant action, dose which inhibits the reserpine-induced hypothermia by 50%), male mice (Swiss strain), oral, 60 minutes before 2.15 mg/kg reserpine s.c.

Structures can show the parent of a compound that is named as a salt. Where two headings read alike, the source gives them in different places.

Consider ten molecules from patent publication US4564641A, “Substituted 1-oxo-2-phenyl-2-(2-alkylaminoethyl)-1,2,3,4-tetrahydronaphthalenes, their preparation and their use” (BASF Aktiengesellschaft, priority 1982, dated 1986).

As to `CN(C)CCC1(c2ccc(F)cc2)CCc2ccccc2C1=O.Cl` (centres unmarked) [Example 5, 1-oxo-2-(4-fluorophenyl)-2-(2-dimethylaminoethyl)-1,2,3,4-tetrahydronaphthalene hydrochloride], the ED50 under setting [1] came to 4.9 mg/kg.
For `CN(C)CCC1(c2ccccc2)CCc2ccccc2C1=O` (racemic) [Example 18c, 1-oxo-2-phenyl-2-(2-dimethylaminoethyl)-1,2,3,4-tetrahydronaphthalene], the “ED50 (antidepressant action, dose which inhibits the reserpine-induced hypothermia by 50%)” value under setting [2] is reported as 0.09 mg/kg. The “activity greater than that of imipramine, by a factor of” value (ratio of ED50 to imipramine, oral, mice) worked out at 72.
As to `CN(C)CCC1(c2ccccc2)CCc2ccccc2C1=O` (centres unmarked) [Example 1, 1-oxo-2-phenyl-2-(2-dimethylaminoethyl)-1,2,3,4-tetrahydronaphthalene], under setting [3], the ED50 is 0.14 mg/kg.
Regarding `Cc1cccc(C2(CCN(C)C)CCc3ccccc3C2=O)c1` (centres unmarked) [Example 2, 1-oxo-2-(3-tolyl)-2-(2-dimethylaminoethyl)-1,2,3,4-tetrahydronaphthalenehydrochloride], under setting [1], the ED50 is 6.8 mg/kg.
Turning to `CN(C)CCCN1c2ccccc2CCc2ccccc21` [imipramine, reference compound], the ED50 under setting [3] stood at 6.8 mg/kg.
For the molecule `CN(C)CCC1(c2ccc(Cl)cc2)CCc2ccccc2C1=O` (centres unmarked) [Example 3, 1-oxo-2-(4-chlorophenyl)-2-(2-dimethylaminoethyl)-1,2,3,4-tetrahydronaphthalene], the ED50 under setting [1] stood at 4.6 mg/kg.
On the same count and under the same terms, the same measure for `COc1cccc(C2(CCN(C)C)CCc3ccccc3C2=O)c1.O=C(O)C(=O)O` (centres unmarked) [Example 14, 1-oxo-2-(3-methoxyphenyl)-2-(2-dimethylaminoethyl)-1,2,3,4-tetrahydronaphthalene hydrogen oxalate]: 2.3 mg/kg; for `CN(C)CCC1(c2ccccc2)CCc2c(Cl)cccc2C1=O` (centres unmarked) [Example 12, 1-oxo-5-chloro-2-phenyl-2-(2-dimethylaminoethyl)-1,2,3,4-tetrahydronaphthalene]: 0.9 mg/kg.
In the case of `CN(C)CCC1(c2cccc(Cl)c2)CCc2ccccc2C1=O.Cl` (centres unmarked) [Example 8, 1-oxo-2-(3-chlorophenyl)-2-(2-dimethylaminoethyl)-1,2,3,4-tetrahydronaphthalene hydrochloride], the ED50 under setting [1] came to 5.2 mg/kg.
`CN(C)CCC1(c2ccccc2)CCc2ccccc2C1=O` (racemic) [Example 18a, 1-oxo-2-phenyl-2-(2-dimethylaminoethyl)-1,2,3,4-tetrahydronaphthalene]: the “ED50 (antidepressant action, dose which inhibits the reserpine-induced hypothermia by 50%)” value under setting [2] came out at 0.85 mg/kg.
